Test results as given in patent US20250270213A1, “PI3Ka INHIBITORS” (Synnovation Therapeutics, Inc., priority 2022, published 2025).

Tested on: T47D (PIK3CA H1047R) cells
Experiment: pS473 AKT assay with 2.5% FBS, T47D cells
Assay type: cell-based
Details: Homo sapiens, pSer473 AKT, DMEM with 2.5% FBS, 2 h treatment, read-out: T47D_IC50
Outline: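 T47D (PIK3CA H1047R) cells were switched to DMEM with 2.5% FBS and exposed to compounds for 2 h. After paraformaldehyde fixation, pSer473 AKT was detected by in-cell ELISA (rabbit primary, HRP anti-rabbit secondary, chemiluminescence); IC50 values were fitted from the concentration series.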

IC50 | SMILES
< 1 µM | Cc1cc(C(C)Nc2ccc(Cl)nc2-c2cnn(C3CCN(C(=O)N(C)C)CC3)c2)c2c(c1)c(=O)n1c3c2cnn3CCC1 (stereo not drawn) [Compound 305, 4-(4-(6-chloro-3-((1-(8-methyl-6-oxo-4,5-dihydro-3H,6H-2,2a,5a-triazaaceanthrylen-10-yl)ethyl)amino)pyridin-2-yl)-1H-pyrazol-1-yl)-N,N-dimethylpiperidine-1-carboxamide]
< 1 µM | CNC(=O)c1ccc(-c2nc(C)ccc2NC(C)c2cc(C)cc3c(=O)n4c5c(cnn5CCC4)c23)cc1F (stereo not drawn) [Compound 317, 2-fluoro-N-methyl-4-(6-methyl-3-((1-(8-methyl-6-oxo-4,5-dihydro-3H,6H-2,2a,5a-triazaaceanthrylen-10-yl)ethyl)amino)pyridin-2-yl)benzamide]
< 1 µM | Cc1cc(C(C)Nc2ccc(Cl)nc2-c2cnn(C3CCN(C)C3)c2)c2c(c1)c(=O)n1c3c2cnn3CCC1 (stereo not drawn) [Compound 303, 10-(1-((6-chloro-2-(1-(1-methylpyrrolidin-3-yl)-1H-pyrazol-4-yl)pyridin-3-yl)amino)ethyl)-8-methyl-4,5-dihydro-3H,6H-2,2a,5a-triazaaceanthrylen-6-one]
< 1 µM | Cc1cc(C(C)Nc2ccc(Cl)nc2-c2ccc3c(c2)CN(C)C3=O)c2c(c1)c(=O)n(C)c1c2cnn1C1CN(C)C1 (stereo not drawn) [Compound 87, 9-(1-((6-chloro-2-(2-methyl-1-oxoisoindolin-5-yl)pyridin-3-yl)amino)ethyl)-4,7-dimethyl-3-(1-methylazetidin-3-yl)-3,4-dihydro-5H-pyrazolo[3,4-c]isoquinolin-5-one]
< 1 µM | Cc1cc(C(CO)Nc2ccc(Cl)nc2-c2cnn(C)c2)c2c(c1)c(=O)n1c3c2cnn3CCC1 (stereo not drawn) [Compound 329, 10-(1-((6-chloro-2-(1-methyl-1H-pyrazol-4-yl)pyridin-3-yl)amino)-2-hydroxyethyl)-8-methyl-4,5-dihydro-3H,6H-2,2a,5a-triazaaceanthrylen-6-one]
< 1 µM | Cc1cc(C(C)Nc2ccc(Cl)nc2-c2ccc(=O)n(C)c2)c2c(c1)c(=O)n(C)c1c2cnn1C1CCN(C)CC1 (stereo not drawn) [Compound 166, 9-[1-[[6-chloro-2-(1-methyl-6-oxo-3-pyridyl)-3-pyridyl]amino]ethyl]-4,7-dimethyl-3-(1-methyl-4-piperidyl)pyrazolo[3,4-c]isoquinolin-5-one]
< 1 µM | Cc1cc(C(C)Nc2ccc(Cl)nc2-c2ccc3c(c2)CN(C)C3=O)c2c(c1)c(=O)n1c3c2cnn3CCC1 (stereo not drawn) [Compound 314, 10-(1-((6-chloro-2-(2-methyl-1-oxoisoindolin-5-yl)pyridin-3-yl)amino)ethyl)-8-methyl-4,5-dihydro-3H,6H-2,2a,5a-triazaaceanthrylen-6-one]
< 1 µM | Cc1cc(C(C)Nc2ccc(Cl)nc2-c2nnco2)c2c(c1)c(=O)n1c3c2cnn3C(CO)CC1 (stereo not drawn) [Example 286, 10-(1-((6-chloro-2-(1,3,4-oxadiazol-2-yl)pyridin-3-yl)amino)ethyl)-3-(hydroxymethyl)-8-methyl-4,5-dihydro-3H,6H-2,2a,5a-triazaaceanthrylen-6-one]
< 1 µM | Cc1cc(C(C)Nc2ccc(Cl)nc2-c2ncn(C)n2)c2c(c1)c(=O)n(C)c1c2cnn1C1CCNCC1 (stereo not drawn) [Compound 176, 9-(1-((6-Chloro-2-(1-methyl-1H-1,2,4-triazol-3-yl)pyridin-3-yl)amino)ethyl)-4,7-dimethyl-3-(piperidin-4-yl)-3,4-dihydro-5H-pyrazolo[3,4-c]isoquinolin-5-one]
< 1 µM | Cc1cc(C(C)Nc2ccc(Cl)nc2-c2cnn(C3CCN(C)CC3)c2)c2c(c1)c(=O)n1c3c2cnn3CCC1 (stereo not drawn) [Compound 301]
< 1 µM | CCn1ncc2c3c(C(C)Nc4ccc(Cl)nc4-c4ccc(=O)n(C)c4)cc(C)cc3c(=O)n(C3CC3)c21 (stereo not drawn) [Example 222, 9-[1-[[6-chloro-2-(1-methyl-6-oxo-3-pyridyl)-3-pyridyl]amino]ethyl]-4-cyclopropyl-3-ethyl-7-methyl-pyrazolo[3,4-c]isoquinolin-5-one]
< 1 µM | CC(=O)N1CCC(c2nc(Cl)ccc2NC(C)c2cc(C)cc3c(=O)n(C)c4c(cnn4CCO)c23)CC1 (stereo not drawn) [Example 258, 9-[1-[[2-(1-Acetyl-4-piperidyl)-6-chloro-3-pyridyl]amino]ethyl]-3-(2-hydroxyethyl)-4,7-dimethyl-pyrazolo[3,4-c]isoquinolin-5-one]
< 1 µM | Cc1cc(C(C)Nc2ccc(C)nc2C(=O)O)c2c(c1)c(=O)n1c3c2cnn3CCC1 (stereo not drawn) [Compound I-37, 6-Methyl-3-((1-(8-methyl-6-oxo-4,5-dihydro-3H,6H-2,2a,5a-triazaaceanthrylen-10-yl)ethyl)amino)picolinic acid]

The remaining lines, values behind:

SMILES | IC50
Cc1cc(C(C)Nc2ccc(Cl)nc2-c2ncn(C)n2)c2c(c1)c(=O)n(C)c1c(C(C)O)ncn21 (stereo not drawn) [Compound 111, 9-(1-((6-Chloro-2-(1-methyl-1H-1,2,4-triazol-3-yl)pyridin-3-yl)amino)ethyl)-3-(1-hydroxyethyl)-4,7-dimethylimidazo[1,5-a]quinazolin-5(4H)-one] | < 1 µM
Cc1cc(C(C)Nc2ccc(Cl)nc2-c2ccc3ncccc3c2)c2c(c1)c(=O)n(C)c1c2cnn1CCO (stereo not drawn) [Example 246, 9-(1-((6-chloro-2-(quinolin-6-yl)pyridin-3-yl)amino)ethyl)-3-(2-hydroxyethyl)-4,7-dimethyl-3,4-dihydro-5H-pyrazolo[3,4-c]isoquinolin-5-one] | < 1 µM
CCn1c(=O)c2cc(C)cc(C(C)Nc3ccc(Cl)nc3-c3ncn(C)n3)c2c2cnn(CCO)c21 (stereo not drawn) [Example 261, 9-[1-[[6-Chloro-2-(1-methyl-1,2,4-triazol-3-yl)-3-pyridyl]amino]ethyl]-4-ethyl-3-(2-hydroxyethyl)-7-methyl-pyrazolo[3,4-c]isoquinolin-5-one] | < 1 µM
Cc1cc(C(C)Nc2ccccc2C(=O)O)c2c(c1)c(=O)n(C)c1nn(-c3ccnc(F)c3)cc21 (stereo not drawn) [Compound I-29, 2-((1-(2-(2-Fluoropyridin-4-yl)-4,7-dimethyl-5-oxo-4,5-dihydro-2H-pyrazolo[3,4-c]isoquinolin-9-yl)ethyl)amino)benzoic acid] | < 1 µM
COCCn1ncc2c3c(C(C)Nc4ccc(Cl)nc4-c4noc(=O)[nH]4)cc(C)cc3c(=O)n(C)c21 (stereo not drawn) [Compound 67, 3-(6-Chloro-3-((1-(3-(2-methoxyethyl)-4,7-dimethyl-5-oxo-4,5-dihydro-3H-pyrazolo[3,4-c]isoquinolin-9-yl)ethyl)amino)pyridin-2-yl)-1,2,4-oxadiazol-5(4H)-one] | < 1 µM
Cc1cc(C(C)Nc2ccc(Cl)nc2-c2noc(=O)[nH]2)c2c(c1)c(=O)n(C)c1c2cnn1Cc1ccccn1 (stereo not drawn) [Example 276, 3-(6-Chloro-3-((1-(4,7-dimethyl-5-oxo-3-(pyridin-2-ylmethyl)-4,5-dihydro-3H-pyrazolo[3,4-c]isoquinolin-9-yl)ethyl)amino)pyridin-2-yl)-1,2,4-oxadiazol-5(4H)-one] | < 1 µM
Cc1cc(C(C)Nc2ccc(Cl)nc2-c2ccc3c(c2)CN(C)C3=O)c2c(c1)c(=O)n(C)c1c2cnn1CCO (stereo not drawn) [Example 248, 9-(1-((6-chloro-2-(2-methyl-1-oxoisoindolin-5-yl)pyridin-3-yl)amino)ethyl)-3-(2-hydroxyethyl)-4,7-dimethyl-3,4-dihydro-5H-pyrazolo[3,4-c]isoquinolin-5-one] | < 1 µM
[2H]C([2H])([2H])n1c(=O)c2cc(C)cc(C(C)Nc3ccc(Cl)nc3-c3noc(=O)[nH]3)c2c2cnn([C@H]3CCOC3)c21 (stereo partly drawn) [Example 213, 3-[6-Chloro-3-[1-[7-methyl-5-oxo-3-[(3S)-tetrahydrofuran-3-yl]-4-(trideuteriomethyl)pyrazolo[3,4-c]isoquinolin-9-yl]ethylamino]-2-pyridyl]-4H-1,2,4-oxadiazol-5-one] | < 1 µM
CCn1c(=O)c2cc(C)cc(C(C)Nc3ccc(Cl)nc3-c3ncn(C)n3)c2c2cnn(-c3cccnc3)c21 (stereo not drawn) [Example 274, 9-[1-[[6-Chloro-2-(1-methyl-1,2,4-triazol-3-yl)-3-pyridyl]amino]ethyl]-4-ethyl-7-methyl-3-(3-pyridyl)pyrazolo[3,4-c]isoquinolin-5-one] | < 1 µM
CCn1ncc2c3c(C(C)Nc4ccc(Cl)nc4-c4noc(=O)[nH]4)cc(C(F)(F)F)cc3c(=O)n(C)c21 (stereo not drawn) [Compound 69, 3-(6-Chloro-3-((1-(3-ethyl-4-methyl-5-oxo-7-(trifluoromethyl)-4,5-dihydro-3H-pyrazolo[3,4-c]isoquinolin-9-yl)ethyl)amino)pyridin-2-yl)-1,2,4-oxadiazol-5(4H)-one] | < 1 µM
CCn1ncc2c3c(C(C)Nc4ccc(Cl)nc4-c4noc(=O)[nH]4)cc(C)cc3c(=O)n(C)c21 (stereo not drawn) [Compound 59, 3-(6-Chloro-3-((1-(3-ethyl-4,7-dimethyl-5-oxo-4,5-dihydro-3H-pyrazolo[3,4-c]isoquinolin-9-yl)ethyl)amino)pyridin-2-yl)-1,2,4-oxadiazol-5(4H)-one] | < 1 µM
Cc1cc(C(C)Nc2ccc(Cl)nc2N2CCOCC2)c2c(c1)c(=O)n(C)c1c(C(=O)N(C)C)ncn21 (stereo not drawn) [Compound 127, 9-(1-((6-chloro-2-morpholinopyridin-3-yl)amino)ethyl)-N,N,4,7-tetramethyl-5-oxo-4,5-dihydroimidazo[1,5-a]quinazoline-3-carboxamide] | < 1 µM
CCn1c(=O)c2cc(C)cc(C(C)Nc3ccc(Cl)nc3-c3ccnc(C)c3)c2c2cnn([C@H]3CCOC3)c21 (stereo partly drawn) [Example 218, 9-(1-((6-chloro-2′-methyl-[2,4′-bipyridin]-3-yl)amino)ethyl)-4-ethyl-7-methyl-3-((S)-tetrahydrofuran-3-yl)-3,4-dihydro-5H-pyrazolo[3,4-c]isoquinolin-5-one] | < 1 µM
Cc1cc(C(C)Nc2ccc(Cl)nc2-c2ccncc2F)c2c(c1)c(=O)n(C)c1c2cnn1CCN1CCOCC1 (stereo not drawn) [Example 264, 9-(1-((6-chloro-3′-fluoro-[2,4′-bipyridin]-3-yl)amino)ethyl)-4,7-dimethyl-3-(2-morpholinoethyl)-3,4-dihydro-5H-pyrazolo[3,4-c]isoquinolin-5-one] | < 1 µM
